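Dose response: 5 concentrations. Exposure: 48 h. Format: 96-well plates. Endpoint: linear interpolation; highest concentration if not reached. At the TGI there is no net growth.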
How the values were obtained:
Assay in all cases: NCI tumour cell line growth inhibition, 48 h
HCT-15 colon = test system: HCT-15 colon
NCI-H460 lung = test system: NCI-H460 lung
HOP-62 NSCLC = test system: HOP-62 NSCLC
UO-31 renal = test system: UO-31 renal
MDA-MB-435 = test system: MDA-MB-435
SN12C renal = test system: SN12C renal
RXF 393 renal = test system: RXF 393 renal
HCT-116 colon = test system: HCT-116 colon
OVCAR-8 ovarian = test system: OVCAR-8 ovarian
SK-MEL-5 melanoma = test system: SK-MEL-5 melanoma
CAKI-1 renal = test system: CAKI-1 renal
MCF7 breast = test system: MCF7 breast
IGROV1 ovarian = test system: IGROV1 ovarian
ACHN renal = test system: ACHN renal
TK-10 renal = test system: TK-10 renal
HOP-92 NSCLC = test system: HOP-92 NSCLC
COLO 205 colon = test system: COLO 205 colon

| SMILES | TGI (HCT-15 colon) | TGI (NCI-H460 lung) | TGI (HOP-62 NSCLC) | TGI (UO-31 renal) | TGI (MDA-MB-435) | TGI (SN12C renal) | TGI (RXF 393 renal) | TGI (HCT-116 colon) | TGI (OVCAR-8 ovarian) | TGI (SK-MEL-5 melanoma) | TGI (CAKI-1 renal) | TGI (MCF7 breast) | TGI (IGROV1 ovarian) | TGI (ACHN renal) | TGI (TK-10 renal) | TGI (HOP-92 NSCLC) | TGI (COLO 205 colon) |
| --- | --- | --- | --- | --- | --- | --- | --- | --- | --- | --- | --- | --- | --- | --- | --- | --- | --- |
| Oc1cccc2ccc(Br)nc12 | > 100 µM | > 100 µM | > 100 µM | > 100 µM | > 100 µM | > 100 µM | > 100 µM | > 100 µM | > 100 µM | > 100 µM | > 100 µM | > 100 µM | > 100 µM | > 100 µM | > 100 µM | > 100 µM | > 100 µM |
| Cc1ccc(S(=O)(=O)NNC(=O)Nc2ccc([N+](=O)[O-])cc2)cc1 | > 100 µM | 87.6 µM | 95.4 µM | > 100 µM | > 100 µM | > 100 µM | > 100 µM | > 100 µM | 42.3 µM | > 100 µM | > 100 µM | > 100 µM | > 100 µM | > 100 µM | > 100 µM | > 100 µM | > 100 µM |
| Cc1ccc(O)c(C2=NNC(c3cccc(Cl)c3)C2)c1 (centres undefined) | 29.3 µM | > 100 µM | > 100 µM | > 100 µM | 44.5 µM | > 100 µM | 64.6 µM | > 100 µM | > 100 µM | > 100 µM | > 100 µM | > 100 µM | 48.8 µM | > 100 µM | > 100 µM | 81.7 µM | > 100 µM |
| COC(=O)[C@@H]1[C@H]2CC[C@]3(C)[C@@H](OC(C)=O)CC[C@H]3[C@@H]2CC[C@H]1C(C)=O | > 100 µM | > 100 µM | > 100 µM | > 100 µM | > 100 µM | > 100 µM | > 100 µM | > 100 µM | > 100 µM | > 100 µM | > 100 µM | > 100 µM | > 100 µM | > 100 µM | > 100 µM | > 100 µM | > 100 µM |
| COc1ccc(NC(/C(C(=O)C(=O)/C=C(\O)c2ccccc2)=C(\O)c2ccccc2)c2ccc(OC)cc2)cc1 (centres undefined) | > 100 µM | > 100 µM | > 100 µM | > 100 µM | 59.1 µM | > 100 µM | > 100 µM | > 100 µM | > 100 µM | > 100 µM | > 100 µM | > 100 µM | > 100 µM | > 100 µM | > 100 µM | 75.8 µM | > 100 µM |
| O=C(NCCN(CCNC(=O)c1cccc(=O)n1O)CCNC(=O)c1cccc(=O)n1O)c1cccc(=O)n1O | > 100 µM | > 100 µM | > 100 µM | > 100 µM | > 100 µM | > 100 µM | > 100 µM | – | > 100 µM | > 100 µM | > 100 µM | > 100 µM | > 100 µM | > 100 µM | > 100 µM | > 100 µM | > 100 µM |
| CC1(C)CCC[C@@]2(C)C1CC[C@@]1(CO1)[C@@H]2/C=C\C(C=O)CC=O (some centres undefined) | > 100 µM | > 100 µM | > 100 µM | > 100 µM | > 100 µM | > 100 µM | > 100 µM | > 100 µM | > 100 µM | > 100 µM | > 100 µM | > 100 µM | > 100 µM | > 100 µM | > 100 µM | > 100 µM | > 100 µM |
| Cn1c(N)c(/C=C/C(=O)Oc2ccccc2)c(=O)n(C)c1=O | > 100 µM | > 100 µM | 40.9 µM | > 100 µM | > 100 µM | > 100 µM | > 100 µM | > 100 µM | > 100 µM | > 100 µM | 63.8 µM | > 100 µM | > 100 µM | > 100 µM | > 100 µM | 93 µM | > 100 µM |
| COc1cc(C(=O)OC2CC34CCNC35CC(OC5(OC)C2O)c2cc3c(cc24)OCO3)ccc1O (centres undefined) | > 100 µM | > 100 µM | > 100 µM | – | > 100 µM | > 100 µM | > 100 µM | > 100 µM | > 100 µM | > 100 µM | > 100 µM | > 100 µM | > 100 µM | > 100 µM | > 100 µM | > 100 µM | > 100 µM |
| COC(=O)C1=COC2OC3CC1C2C(C)O3 (centres undefined) | > 100 µM | > 100 µM | > 100 µM | > 100 µM | > 100 µM | > 100 µM | > 100 µM | > 100 µM | > 100 µM | > 100 µM | > 100 µM | > 100 µM | > 100 µM | > 100 µM | > 100 µM | > 100 µM | > 100 µM |
| COc1ccc(C2=NN(C(=O)c3ccc(Cl)cc3)C(O)(c3cc(F)c(Cl)cc3Cl)C2)cc1 (centres undefined) | > 100 µM | > 100 µM | > 100 µM | 44.4 µM | > 100 µM | > 100 µM | > 100 µM | > 100 µM | > 100 µM | > 100 µM | > 100 µM | > 100 µM | > 100 µM | > 100 µM | > 100 µM | > 100 µM | > 100 µM |
| c1ccc(COC[C@H]2C3OCC([C@H](OCc4ccccc4)[C@H]3OCc3ccccc3)N2Cc2ccccc2)cc1 (some centres undefined) | > 100 µM | > 100 µM | > 100 µM | > 100 µM | > 100 µM | > 100 µM | > 100 µM | > 100 µM | > 100 µM | > 100 µM | > 100 µM | > 100 µM | > 100 µM | > 100 µM | > 100 µM | > 100 µM | > 100 µM |
| CCOC(=O)CCc1ccc(NC(=O)/C=C/c2ccc([N+](=O)[O-])o2)cc1 | 4.05 µM | 4.78 µM | 11 µM | 3.08 µM | 0.845 µM | 4.26 µM | 2.75 µM | 2.01 µM | 2.28 µM | 3.49 µM | 6.54 µM | 32.4 µM | > 31.1 µM | 2.73 µM | 4.07 µM | 50.7 µM | 5.29 µM |
| Cc1ccc(CN2CCN(Cc3ccc(C)o3)C(C)C2)o1 (centres undefined) | > 100 µM | > 100 µM | > 100 µM | > 100 µM | > 100 µM | > 100 µM | > 100 µM | > 100 µM | > 100 µM | > 100 µM | > 100 µM | > 100 µM | > 100 µM | > 100 µM | > 100 µM | > 100 µM | > 100 µM |
| NC(=O)NC(=O)c1cccc(NC(=O)CCl)c1 | 9.73 µM | 3.92 µM | 4.71 µM | 0.452 µM | 5.93 µM | 4.8 µM | 4.3 µM | 1.83 µM | 12.7 µM | 2.07 µM | 6 µM | 9.32 µM | 12.7 µM | 12.9 µM | 6.76 µM | 15.2 µM | 2.2 µM |
| COC1C(=O)N(SC)C1c1ccccc1Cl (centres undefined) | 45.1 µM | > 100 µM | > 100 µM | 33.3 µM | 53.9 µM | 47.3 µM | > 100 µM | 24.4 µM | 39.4 µM | > 100 µM | > 100 µM | 43 µM | 38.6 µM | 33.9 µM | > 100 µM | > 100 µM | > 100 µM |
| S=C1Cc2c(-c3ccccc3)cc(-c3ccc(Cl)cc3)nc2-c2ccccc2N1 | > 54.7 µM | > 100 µM | 3.16 µM | > 24 µM | > 38.8 µM | 5.26 µM | 11.2 µM | 13.7 µM | 4.64 µM | > 100 µM | 3.33 µM | > 72.6 µM | 4.36 µM | 2.69 µM | 8.41 µM | 3.53 µM | > 42 µM |
| COc1ccc(NC(=O)NNS(=O)(=O)c2ccc(C)cc2)cc1 | > 100 µM | > 100 µM | > 100 µM | > 100 µM | > 100 µM | > 100 µM | > 100 µM | > 100 µM | > 100 µM | > 100 µM | > 100 µM | > 100 µM | > 100 µM | > 100 µM | > 100 µM | > 100 µM | > 100 µM |
| Cc1nn(C(=O)c2ccc(Cl)cc2)c2c1C(c1ccc(Cl)cc1)SC(N)=N2 (centres undefined) | > 10 µM | > 10 µM | > 10 µM | – | > 10 µM | > 10 µM | > 10 µM | > 10 µM | > 10 µM | > 10 µM | > 10 µM | > 10 µM | > 10 µM | > 10 µM | > 10 µM | > 10 µM | > 10 µM |
| O=C(CCN1CCCC1)c1ccc(Oc2ccc(F)cc2)cc1 | > 100 µM | > 100 µM | > 100 µM | > 100 µM | > 100 µM | > 100 µM | 74.4 µM | > 100 µM | > 100 µM | > 100 µM | 30.1 µM | 32.3 µM | > 100 µM | > 100 µM | > 100 µM | 41.5 µM | 56.7 µM |
| CC(C)CC1NC(=O)CCC(NC(=O)C(Cc2ccc(O)cc2)NC(=O)OCc2ccccc2)C(=O)NC(Cc2ccccc2)C(=O)NC(Cc2ccccc2)NC1=O (centres undefined) | > 100 µM | > 100 µM | > 100 µM | > 100 µM | > 100 µM | > 100 µM | > 100 µM | > 100 µM | > 100 µM | > 100 µM | > 100 µM | > 100 µM | > 100 µM | > 100 µM | > 100 µM | > 100 µM | > 100 µM |

From PubChem BioAssay (NCI)
